Assay results as given in PMC6680768, “Synthesis and Preclinical Evaluation of Radio-Iodinated GRPR/PSMA Bispecific Heterodimers for the Theranostics Application in Prostate Cancer” (Pharmaceutics, 2019).

Experiments:
[1] = target: T1, PSMA (Homo sapiens, UniProt Q04609); experiment: Binding inhibition of [^111In]In-PSMA-617 on PC-3pip cells, GRPRs blocked (IC50); conditions: competitor 1 nM [^111In]In-PSMA-617, GRPRs blocked with 200 nM RM26, 4 °C, 5 h, non-iodinated heterodimers
T1 construct: host or cells: PC-3pip (PC-3 cells transfected with PSMA)
T1 sequence (Q04609 whole entry): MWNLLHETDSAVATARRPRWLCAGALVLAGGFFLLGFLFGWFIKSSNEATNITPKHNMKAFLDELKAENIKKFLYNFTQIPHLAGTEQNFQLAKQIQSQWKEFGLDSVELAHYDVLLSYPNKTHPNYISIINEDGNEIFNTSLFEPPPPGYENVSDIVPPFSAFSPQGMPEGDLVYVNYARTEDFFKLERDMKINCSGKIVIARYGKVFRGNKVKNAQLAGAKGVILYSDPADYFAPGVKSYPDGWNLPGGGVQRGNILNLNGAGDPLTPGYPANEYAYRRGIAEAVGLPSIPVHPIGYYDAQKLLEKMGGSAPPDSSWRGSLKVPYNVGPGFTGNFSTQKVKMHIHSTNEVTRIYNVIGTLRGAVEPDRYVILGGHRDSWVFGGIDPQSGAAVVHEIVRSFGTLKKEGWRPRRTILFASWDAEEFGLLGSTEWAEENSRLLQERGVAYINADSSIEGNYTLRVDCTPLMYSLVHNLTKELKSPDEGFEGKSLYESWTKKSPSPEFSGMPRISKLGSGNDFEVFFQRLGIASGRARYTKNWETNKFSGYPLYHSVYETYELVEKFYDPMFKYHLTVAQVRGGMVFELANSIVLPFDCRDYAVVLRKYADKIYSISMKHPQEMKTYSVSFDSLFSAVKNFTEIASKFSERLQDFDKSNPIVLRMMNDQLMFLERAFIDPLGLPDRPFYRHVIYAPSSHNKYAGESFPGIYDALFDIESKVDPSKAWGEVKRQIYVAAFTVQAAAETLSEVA
Description: Cells were incubated at 4 °C for 5 h. After incubation, the cells were detached with trypsin–EDTA and the activity in cell samples was measured. Data were plotted using nonlinear regression.

[2] = tested on: PC-3pip cells (GRPR and PSMA positive); experiment: Cellular retention of activity after interrupted incubation, PC-3pip cells; assay type: cell-based; conditions: 24 h
Description: (§1) The cellular retention of activity after interrupted incubation was carried out on PC-3, LNCaP, and PC-3pip cells. A concentration of 20 nM of each radiolabeled heterodimer was added to the cells and the dishes were incubated at 4 °C for 2 h. The media was aspired, and the cells were further incubated with complete media at 37 °C. At predetermined time points, the media was collected, and the cells were detached with trypsin–EDTA and collected. The radioactivity content of each collected fraction was measured.

[3] = tested on: PSMA; conditions: LNCaP xenografts, 1 h pi, p < 0.05
Description: All in vivo experiments were carried out on BALB/c nu/nu mice provided by Scanbur A/S (Sweden). PC-3, LNCaP, and PC-3pip tumor xenografts were established by implanting 5 × 10^6 cells/mouse for PC-3 and PC-3pip xenografts, and 10 × 10^6 cells for LNCaP xenografts. The in vivo experiments were carried out when palpable tumors were observed. Animal weight at the moment of experiment was 20 ± 2 g, 21 ± 3 g, 14.5 ± 0.8 g, and average tumor size was 0.2 ± 0.1 g, 0.05 ± 0.04 g, 0.4 ± 0.1 g for PC-3, LNCaP, and PC-3pip models, respectively.
In vivo specificity for the radiolabeled heterodimers was tested on mice bearing PC-3 or LNCaP xenografts. The mice were injected with 40 pmol (30 KBq) of the radiolabeled heterodimer in 1% bovine serum albumin (BSA) in PBS. For the mice in the blocked group, 7.5 nmol of either unlabeled NOTA-PEG4-RM26 or PSMA-617 was added to the radiolabeled heterodimer in order to block GRPR in PC-3 xenografted mice or PSMA in LNCaP xenografted mice, respectively. Animals were sacrificed by heart punctures exsanguination after pre-injection of Ketalar–Rompun solution (10 mg/mL Ketalar and 1 mg/mL Rompun; 20 μL solution/gram of body weight). The mice were dissected 1 h post-injection (pi) and the organs of interest were collected. The activity uptake in organs was measured.

[4] = tested on: LNCaP cells (PSMA positive); experiment: Cellular retention of activity after interrupted incubation, LNCaP cells; assay type: cell-based; conditions: 24 h
Description: as §1

[5] = tested on: PC-3 cells (GRPR positive); experiment: Cellular retention of activity after interrupted incubation, PC-3 cells; assay type: cell-based; conditions: 24 h of incubation, normalized to 0 h
Description: as §1

[6] = set-up: species or system Balb/c nu/nu mice; conditions: mouse, in vivo
Description: (§2) The radioactivity uptake in organs was studied 1, 3, 24, and 72 h pi as described above.

[7] = tested on: PC-3pip (GRPR and PSMA positive) xenografts; set-up: species or system Balb/c nu/nu mice; conditions: mouse, in vivo
Description: as §2

[8] = assay type: physicochemical
Description: The octanol–water distribution coefficient was determined as described earlier. Briefly, 500 µL of Milli-Q water and 500 µL of n-octanol were added in an Eppendorf tube containing radiolabeled peptide. The tube was vortexed for 2 min and centrifuged for 20 s. Fractions of each phase were collected and their activity was measured.

[9] = target: T1, PSMA; set-up: method as in PMID 25883127; conditions: cited from earlier work

| SMILES | IC50 [1] [nM] | logD [8] | decrease of cell-associated activity [2] [%] | difference in tumor activity uptake between non-blocked and blocked groups (in vivo specificity to PSMA) [3] | further results |
| --- | --- | --- | --- | --- | --- |
| CC(C)C[C@H](NC(=O)C[C@H](O)[C@H](CC(C)C)NC(=O)[C@H](Cc1c[nH]cn1)NC(=O)CNC(=O)[C@@H](NC(=O)[C@H](C)NC(=O)[C@H](Cc1c[nH]c2ccccc12)NC(=O)[C@H](CCC(N)=O)NC(=O)[C@@H](Cc1ccccc1)NC(=O)CCOCCOCCNC(=O)[C@H](Cc1ccc(O)c(I)c1)n1cc(COCCOCCC(=O)NC[C@H]2CC[C@H](C(=O)N[C@@H](Cc3ccc4ccccc4c3)C(=O)NCCCC[C@H](NC(=O)N[C@@H](CCC(=O)O)C(=O)O)C(=O)O)CC2)nn1)C(C)C)C(N)=O [[^125I]I-BO530] |  | -0.52 | 20 | demonstrated significant difference | cell associated activity from initial [4]: 60%; cell-associated activity [5]: 14% ± 2%; tissue uptake at 24 h [6]: < 1 %ID/g; area under the curve (AUC), kidneys versus tumors [7]: more than two-fold higher; area under the curve (AUC), tumor versus blood [7]: 10 fold |
| CC(C)C[C@H](NC(=O)C[C@H](O)[C@H](CC(C)C)NC(=O)[C@H](Cc1c[nH]cn1)NC(=O)CNC(=O)[C@@H](NC(=O)[C@H](C)NC(=O)[C@H](Cc1c[nH]c2ccccc12)NC(=O)[C@H](CCC(N)=O)NC(=O)[C@@H](Cc1ccccc1)NC(=O)CCOCCOCCNC(=O)[C@H](Cc1ccc(O)c(I)c1)n1cc(CCCCCCCC(=O)NC[C@H]2CC[C@H](C(=O)N[C@@H](Cc3ccc4ccccc4c3)C(=O)NCCCC[C@H](NC(=O)N[C@@H](CCC(=O)O)C(=O)O)C(=O)O)CC2)nn1)C(C)C)C(N)=O [[^125I]I-BO535] |  | 1.07 | 35 | failed to demonstrate in vivo specificity |  |
| O=C([O-])CN1CCN(CC(=O)[O-])CCN(CC(=O)NCC2CCC(C(=O)N[C@@H](Cc3ccc4ccccc4c3)C(=O)NCCCC[C@H](NC(=O)N[C@@H](CCC(=O)O)C(=O)O)C(=O)O)CC2)CCN(CC(=O)[O-])CC1.[177Lu+3] (some centres unmarked) [^177Lu-PSMA-617] |  |  |  |  | initial uptake in kidneys versus tumors [9]: at least 10 fold |

Now from value to compound, other results behind:

| IC50 [1] [nM] | logD [8] | SMILES | decrease of cell-associated activity [2] [%] | difference in tumor activity uptake between non-blocked and blocked groups (in vivo specificity to PSMA) [3] | further results |
| --- | --- | --- | --- | --- | --- |
| 98 ± 13 |  | CC(C)C[C@H](NC(=O)C[C@H](O)[C@H](CC(C)C)NC(=O)[C@H](Cc1c[nH]cn1)NC(=O)CNC(=O)[C@@H](NC(=O)[C@H](C)NC(=O)[C@H](Cc1c[nH]c2ccccc12)NC(=O)[C@H](CCC(N)=O)NC(=O)[C@@H](Cc1ccccc1)NC(=O)CCOCCOCCNC(=O)[C@H](Cc1ccc(O)cc1)n1cc(COCCOCCC(=O)NC[C@H]2CC[C@H](C(=O)N[C@@H](Cc3ccc4ccccc4c3)C(=O)NCCCC[C@H](NC(=O)N[C@@H](CCC(=O)O)C(=O)O)C(=O)O)CC2)nn1)C(C)C)C(N)=O [BO530] |  |  |  |
| 100 ± 10 |  | CC(C)C[C@H](NC(=O)C[C@H](O)[C@H](CC(C)C)NC(=O)[C@H](Cc1c[nH]cn1)NC(=O)CNC(=O)[C@@H](NC(=O)[C@H](C)NC(=O)[C@H](Cc1c[nH]c2ccccc12)NC(=O)[C@H](CCC(N)=O)NC(=O)[C@@H](Cc1ccccc1)NC(=O)CCOCCOCCNC(=O)[C@H](Cc1ccc(O)cc1)n1cc(CCCCCCCC(=O)NC[C@H]2CC[C@H](C(=O)N[C@@H](Cc3ccc4ccccc4c3)C(=O)NCCCC[C@H](NC(=O)N[C@@H](CCC(=O)O)C(=O)O)C(=O)O)CC2)nn1)C(C)C)C(N)=O [BO535] |  |  |  |
